Results taken from ChEMBL document CHEMBL4346695, “Thiophenol-formaldehyde triazole causes apoptosis induction in ovary cancer cells and prevents tumor growth formation in mice model” (2019).
Calls of active or inactive are those of the source.

Tests used:
Caov-3 cell line = assay: Growth inhibition of human Caov3 cells incubated for 48 hrs by MTT assay; format: functional, cell-based
Homo sapiens = species: Homo sapiens; assay: Growth inhibition of human ES2 cells incubated for 48 hrs by MTT assay; format: functional
Caov-4 = assay: Growth inhibition of human Caov4 cells incubated for 48 hrs by MTT assay; format: functional, cell-based

Measured: growth inhibition (GI)

Sc1ccccc1COCc1cn(-c2c(Cl)cc(Cl)cc2Cl)nn1
active: Caov-3 cell line | Homo sapiens | Caov-4
